Data from patent publication US20050282743A1, “Molecular interactions in cells” (Arbor Vita Corporation, priority 2001, published 2005).
pKd: −log10 of the molar value. Where two headings read alike, the source gives them in different places. Peptide text beside a SMILES is read from it. * marks the point of attachment. Biotin = O=C1N[C@H]2[C@H](CS[C@H]2CCCCC(=O)*)N1

What was measured:
[1] = target: T1, PDZ-domain polypeptide (GST/PDZ fusion protein) (Homo sapiens, UniProt Q12923); experiment: Apparent affinity (Kd) by titration of PL peptide in the G assay; format: binding; settings: read-out: Peptide Optimal Conc (Kd by titration of the PL peptide)
T1 construct: made in house; host or cells: E. coli (DH5alpha, BL21 or JM109)
Summary of the method: (§1)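 A fixed concentration of GST/PDZ fusion protein, 5 ug/ml by default, was mixed in solution with increasing labeled PL peptide (e.g. 0.1 uM-1 mM). Reaction times ranged from 10 minutes to 2 days at 4-37° C. Complexes were separated from free peptide and detected via the label as in the G assay, apparent affinity coming from the saturating concentration.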

[2] = target: T2, PDZ-domain polypeptide (GST/PDZ fusion protein) (Homo sapiens, UniProt Q5TCQ9); experiment: as above; format: binding; settings: read-out: Peptide Optimal Conc (Kd by titration of the PL peptide)
T2 construct: made in house; host or cells: E. coli (DH5alpha, BL21 or JM109)
T2 sequence (Q5TCQ9 1-1481): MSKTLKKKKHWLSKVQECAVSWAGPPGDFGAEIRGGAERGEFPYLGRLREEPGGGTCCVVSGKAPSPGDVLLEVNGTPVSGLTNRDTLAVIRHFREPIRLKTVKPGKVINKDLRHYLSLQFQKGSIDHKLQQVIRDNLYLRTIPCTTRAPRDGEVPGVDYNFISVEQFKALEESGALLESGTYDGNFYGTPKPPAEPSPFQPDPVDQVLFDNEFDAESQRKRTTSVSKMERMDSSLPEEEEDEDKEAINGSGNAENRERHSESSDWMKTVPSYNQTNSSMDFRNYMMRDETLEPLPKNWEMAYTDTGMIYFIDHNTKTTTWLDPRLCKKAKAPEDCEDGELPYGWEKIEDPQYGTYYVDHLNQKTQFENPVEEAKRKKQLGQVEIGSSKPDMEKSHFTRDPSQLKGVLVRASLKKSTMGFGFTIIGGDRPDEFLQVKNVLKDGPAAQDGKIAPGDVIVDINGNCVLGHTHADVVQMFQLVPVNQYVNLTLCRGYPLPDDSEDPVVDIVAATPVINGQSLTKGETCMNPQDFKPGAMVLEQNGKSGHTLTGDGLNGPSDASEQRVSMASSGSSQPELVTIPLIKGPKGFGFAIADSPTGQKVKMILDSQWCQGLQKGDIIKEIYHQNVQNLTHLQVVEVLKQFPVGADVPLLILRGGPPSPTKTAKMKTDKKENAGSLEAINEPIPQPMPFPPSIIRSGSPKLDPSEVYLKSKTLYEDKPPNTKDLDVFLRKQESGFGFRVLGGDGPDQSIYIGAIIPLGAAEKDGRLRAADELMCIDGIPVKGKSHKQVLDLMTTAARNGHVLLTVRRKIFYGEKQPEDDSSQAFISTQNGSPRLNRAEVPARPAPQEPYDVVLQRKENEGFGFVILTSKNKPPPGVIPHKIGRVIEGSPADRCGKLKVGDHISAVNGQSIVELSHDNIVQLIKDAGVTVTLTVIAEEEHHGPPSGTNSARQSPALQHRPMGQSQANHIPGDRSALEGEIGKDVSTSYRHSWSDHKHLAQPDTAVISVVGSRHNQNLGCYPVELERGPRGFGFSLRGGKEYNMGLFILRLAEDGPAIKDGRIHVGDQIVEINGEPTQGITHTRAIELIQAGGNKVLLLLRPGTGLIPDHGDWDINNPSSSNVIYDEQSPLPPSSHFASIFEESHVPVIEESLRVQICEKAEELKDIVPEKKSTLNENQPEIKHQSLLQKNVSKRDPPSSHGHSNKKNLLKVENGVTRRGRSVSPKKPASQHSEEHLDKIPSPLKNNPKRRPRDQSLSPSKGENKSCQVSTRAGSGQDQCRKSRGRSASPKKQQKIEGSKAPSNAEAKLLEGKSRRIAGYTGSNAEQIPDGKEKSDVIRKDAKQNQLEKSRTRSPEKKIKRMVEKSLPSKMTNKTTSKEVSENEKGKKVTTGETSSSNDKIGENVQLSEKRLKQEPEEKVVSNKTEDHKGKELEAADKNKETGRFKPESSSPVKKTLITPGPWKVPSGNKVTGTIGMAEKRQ
Summary of the method: as §1

T1 sequence (Q12923 whole entry, the tested form may be a part): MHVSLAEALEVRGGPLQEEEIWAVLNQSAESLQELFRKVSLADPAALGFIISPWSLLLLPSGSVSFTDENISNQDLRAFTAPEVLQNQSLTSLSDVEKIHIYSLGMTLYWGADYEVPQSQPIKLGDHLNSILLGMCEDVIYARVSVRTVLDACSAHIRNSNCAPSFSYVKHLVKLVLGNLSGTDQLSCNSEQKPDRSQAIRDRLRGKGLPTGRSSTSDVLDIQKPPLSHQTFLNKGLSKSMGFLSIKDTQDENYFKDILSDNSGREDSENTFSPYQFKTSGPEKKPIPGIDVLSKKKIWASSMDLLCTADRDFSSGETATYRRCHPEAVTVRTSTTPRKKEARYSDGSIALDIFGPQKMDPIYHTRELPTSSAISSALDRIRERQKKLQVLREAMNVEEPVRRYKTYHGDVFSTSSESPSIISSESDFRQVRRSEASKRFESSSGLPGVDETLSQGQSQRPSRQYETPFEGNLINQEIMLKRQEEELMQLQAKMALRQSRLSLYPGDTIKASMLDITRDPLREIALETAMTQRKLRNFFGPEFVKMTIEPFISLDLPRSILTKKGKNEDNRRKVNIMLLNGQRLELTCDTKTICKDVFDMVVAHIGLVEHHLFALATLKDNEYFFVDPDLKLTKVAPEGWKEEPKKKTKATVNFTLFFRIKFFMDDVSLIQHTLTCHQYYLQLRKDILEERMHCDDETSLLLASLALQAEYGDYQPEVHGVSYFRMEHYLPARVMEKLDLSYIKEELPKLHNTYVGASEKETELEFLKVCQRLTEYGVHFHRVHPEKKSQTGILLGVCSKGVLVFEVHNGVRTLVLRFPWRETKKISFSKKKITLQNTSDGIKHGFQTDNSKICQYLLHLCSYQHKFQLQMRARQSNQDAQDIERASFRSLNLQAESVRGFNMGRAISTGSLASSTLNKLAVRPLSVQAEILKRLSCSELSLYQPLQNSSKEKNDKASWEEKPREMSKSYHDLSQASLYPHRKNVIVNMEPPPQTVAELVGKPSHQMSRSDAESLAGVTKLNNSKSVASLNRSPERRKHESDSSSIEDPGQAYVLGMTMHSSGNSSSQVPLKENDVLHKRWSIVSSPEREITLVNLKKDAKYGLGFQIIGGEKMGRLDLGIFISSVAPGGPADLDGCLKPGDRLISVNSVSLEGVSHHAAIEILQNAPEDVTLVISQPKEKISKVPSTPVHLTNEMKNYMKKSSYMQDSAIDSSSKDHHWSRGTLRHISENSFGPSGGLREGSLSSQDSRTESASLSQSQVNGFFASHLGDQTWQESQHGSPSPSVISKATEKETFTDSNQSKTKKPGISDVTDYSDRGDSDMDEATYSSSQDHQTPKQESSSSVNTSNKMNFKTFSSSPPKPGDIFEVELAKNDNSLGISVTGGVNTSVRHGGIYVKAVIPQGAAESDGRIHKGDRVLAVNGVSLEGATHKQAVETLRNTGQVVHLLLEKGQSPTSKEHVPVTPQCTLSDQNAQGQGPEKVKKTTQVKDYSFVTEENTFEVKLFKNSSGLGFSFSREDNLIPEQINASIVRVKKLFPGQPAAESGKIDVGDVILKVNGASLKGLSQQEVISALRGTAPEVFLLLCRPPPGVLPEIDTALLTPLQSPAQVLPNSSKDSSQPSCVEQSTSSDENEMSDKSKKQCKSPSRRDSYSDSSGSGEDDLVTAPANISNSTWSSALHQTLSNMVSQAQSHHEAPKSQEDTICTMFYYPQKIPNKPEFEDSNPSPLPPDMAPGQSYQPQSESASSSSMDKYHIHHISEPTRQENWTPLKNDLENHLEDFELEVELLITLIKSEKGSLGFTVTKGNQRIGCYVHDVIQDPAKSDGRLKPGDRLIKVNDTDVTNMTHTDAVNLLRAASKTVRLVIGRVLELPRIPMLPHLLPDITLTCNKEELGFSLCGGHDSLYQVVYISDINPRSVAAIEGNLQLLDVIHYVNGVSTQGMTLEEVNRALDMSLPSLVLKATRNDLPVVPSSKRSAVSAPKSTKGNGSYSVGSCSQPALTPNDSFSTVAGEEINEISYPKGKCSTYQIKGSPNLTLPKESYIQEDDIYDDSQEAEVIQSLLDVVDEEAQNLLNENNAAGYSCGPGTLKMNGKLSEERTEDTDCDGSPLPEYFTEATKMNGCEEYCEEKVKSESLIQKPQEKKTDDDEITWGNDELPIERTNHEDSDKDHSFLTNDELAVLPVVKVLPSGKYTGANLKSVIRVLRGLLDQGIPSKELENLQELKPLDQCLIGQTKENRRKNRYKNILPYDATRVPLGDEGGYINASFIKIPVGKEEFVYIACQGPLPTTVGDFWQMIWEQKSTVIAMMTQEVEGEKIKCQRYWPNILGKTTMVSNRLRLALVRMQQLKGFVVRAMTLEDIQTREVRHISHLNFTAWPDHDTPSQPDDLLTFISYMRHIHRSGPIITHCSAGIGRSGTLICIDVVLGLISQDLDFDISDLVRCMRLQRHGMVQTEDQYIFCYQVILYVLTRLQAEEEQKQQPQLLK

## CC(C)C[C@H](NC(=O)[C@H](Cc1c[nH]c2ccccc12)NC(=O)[C@H](Cc1c[nH]cn1)NC(=O)[C@H](CCCNC(=N)N)NC(=O)[C@H](CC(C)C)NC(=O)[C@@H](NC(=O)[C@H](Cc1ccccc1)NC(=O)[C@H](CCC(N)=O)NC(=O)[C@H](CCCNC(=N)N)NC(=O)[C@@H](NC(=O)[C@H](CCC(=O)O)NC(=O)CNC(=O)[C@H](CCCNC(=N)N)NC(=O)[C@H](CC(=O)O)NC(=O)[C@@H](NC(=O)[C@H](CC(C)C)NC(=O)[C@H](CCC(=O)O)NC(=O)[C@H](CCCNC(=N)N)NC(=O)CCCC[C@@H]1SC[C@@H]2NC(=O)N[C@@H]21)C(C)C)C(C)C)[C@@H](C)O)C(=O)N[C@@H](CCCCN)C(=O)N[C@H](C(=O)O)C(C)C [Dopamine transporter (Na+-dependent)] (Biotin-RELVDRGEVRQFTLRHWLKV-OH; C-terminus assumed)
[1]; PDZ PTPL-1, PDZ Domain 4
  pKd: 6.40
[2]; PDZ KIAA1634, PDZ Domain 1
  pKd: 6.05

## CC[C@H](C)[C@H](NC(=O)[C@H](CCCCN)NC(=O)[C@@H](NC(=O)[C@H](CO)NC(=O)[C@@H]1CCCN1C(=O)[C@H](Cc1ccccc1)NC(=O)[C@@H](NC(=O)[C@@H](NC(=O)[C@H](CCCNC(=N)N)NC(=O)[C@H](CCC(=O)O)NC(=O)[C@H](CC(C)C)NC(=O)[C@H](CC(C)C)NC(=O)[C@H](CC(C)C)NC(=O)[C@@H](NC(=O)CNC(=O)[C@@H](NC(=O)CCCC[C@@H]1SC[C@@H]2NC(=O)N[C@@H]21)C(C)C)[C@@H](C)O)C(C)C)[C@@H](C)CC)C(C)C)C(=O)N[C@@H](C)C(=O)N[C@H](C(=O)N[C@@H](CC(C)C)C(=O)N[C@H](C(=O)O)C(C)C)[C@@H](C)O [Adenovirus E4 Type9]
[1]; PDZ PTPL-1, PDZ Domain 2, Protein Optimal Conc 5
  pKd: 6.70
[2]; PDZ KIAA1634, PDZ Domain 2, Protein Optimal Conc 5
  pKd: 6.82
[2]; PDZ KIAA1634, PDZ Domain 4, Protein Optimal Conc 5
  pKd: 6.70
